Patent US11053204B2, “Pyrimidinyloxy benzene derivatives as herbicides” (FMC Corporation, priority 2015, dated 2021)

Assays:
Format in all cases: in vivo
[1] = system: pigweed (Amaranthus retroflexus); experiment: Test C preemergence, plant response rating; settings: Preemergence
[2] = system: Italian ryegrass (Lolium multiflorum); experiment: Test A preemergence, visual injury rating; settings: Lolium multiflorum, pre-emergence, 240 h, 0 to 100 scale (0 no effect, 100 complete control), read-out: Ryegrass, Italian plant response rating; for pest or weed control at 125 g/ha: 125 g ai/ha; for pest or weed control at 500 g/ha: 500 g ai/ha
How it was run: (§1)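 Compounds in non-phytotoxic solvent with surfactant applied as soil spray preemergence, or postemergence to plants 2-10 cm at one- to two-leaf stage, in loam/sand. After approximately 10 days in greenhouse, injury rated visually versus untreated controls, 0 (no effect) to 100 (complete control).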

[3] = system: giant foxtail (Setaria faberii); experiment: Test A preemergence, visual injury rating; settings: Setaria faberi, pre-emergence, 240 h, 0 to 100 scale (0 no effect, 100 complete control), read-out: Foxtail, Giant plant response rating; for pest or weed control at 125 g/ha: 125 g ai/ha; for pest or weed control at 500 g/ha: 500 g ai/ha
How it was run: as §1

[4] = system: pigweed (Amaranthus retroflexus); experiment: Test A preemergence, visual injury rating; settings: Amaranthus retroflexus, pre-emergence, 240 h, 0 to 100 scale (0 no effect, 100 complete control), read-out: Pigweed plant response rating; for pest or weed control at 125 g/ha: 125 g ai/ha; for pest or weed control at 500 g/ha: 500 g ai/ha
How it was run: as §1

[5] = system: barnyardgrass (Echinochloa crus-galli); experiment: Test A preemergence, visual injury rating; settings: Echinochloa crus-galli, pre-emergence, 240 h, 0 to 100 scale (0 no effect, 100 complete control), read-out: Barnyardgrass plant response rating; for pest or weed control at 125 g/ha: 125 g ai/ha; for pest or weed control at 500 g/ha: 500 g ai/ha
How it was run: as §1

[6] = system: ragweed (common ragweed, Ambrosia elatior); experiment: Test A preemergence, visual injury rating; settings: Ambrosia artemisiifolia, pre-emergence, 240 h, 0 to 100 scale (0 no effect, 100 complete control), read-out: Ragweed plant response rating; for pest or weed control at 125 g/ha: 125 g ai/ha; for pest or weed control at 500 g/ha: 500 g ai/ha
How it was run: as §1

kochia (Kochia scoparia) [7] = experiment: Test A preemergence, visual injury rating; settings: Bassia scoparia, pre-emergence, 240 h, 0 to 100 scale (0 no effect, 100 complete control), read-out: Kochia plant response rating; for pest or weed control at 125 g/ha: 125 g ai/ha; for pest or weed control at 500 g/ha: 500 g ai/ha
How it was run: as §1

corn (Zea mays) = experiment: Test A postemergence, visual injury rating; settings: Zea mays, post-emergence, 240 h, 0 is no effect, 100 is complete control, read-out: Corn plant response rating (0 to 100 scale); for plant injury at 125 g/ha: 125 g ai/ha; for plant injury at 500 g/ha: 500 g ai/ha
How it was run: as §1

[8] = system: Italian ryegrass (Lolium multiflorum); experiment: Test A postemergence, visual injury rating; settings: Lolium multiflorum, post-emergence, 240 h, 0 is no effect, 100 is complete control, read-out: Ryegrass, Italian plant response rating (0 to 100 scale); for pest or weed control at 125 g/ha: 125 g ai/ha; for pest or weed control at 500 g/ha: 500 g ai/ha
How it was run: as §1

[9] = system: giant foxtail (Setaria faberii); experiment: Test A postemergence, visual injury rating; settings: Setaria faberi, post-emergence, 240 h, 0 is no effect, 100 is complete control, read-out: Foxtail, Giant plant response rating (0 to 100 scale); for pest or weed control at 125 g/ha: 125 g ai/ha; for pest or weed control at 500 g/ha: 500 g ai/ha
How it was run: as §1

[10] = system: blackgrass (Alopecurus myosuroides); experiment: Test A postemergence, visual injury rating; settings: Alopecurus myosuroides, post-emergence, 240 h, 0 is no effect, 100 is complete control, read-out: Blackgrass plant response rating (0 to 100 scale); for pest or weed control at 125 g/ha: 125 g ai/ha; for pest or weed control at 500 g/ha: 500 g ai/ha
How it was run: as §1

[11] = system: galium (catchweed bedstraw, Galium aparine); experiment: Test A postemergence, visual injury rating; settings: Galium, post-emergence, 240 h, 0 is no effect, 100 is complete control, read-out: Galium plant response rating (0 to 100 scale); for pest or weed control at 125 g/ha: 125 g ai/ha; for pest or weed control at 500 g/ha: 500 g ai/ha
How it was run: as §1

[12] = system: pigweed (Amaranthus retroflexus); experiment: Test A postemergence, visual injury rating; settings: Amaranthus retroflexus, post-emergence, 240 h, 0 is no effect, 100 is complete control, read-out: Pigweed plant response rating (0 to 100 scale); for pest or weed control at 125 g/ha: 125 g ai/ha; for pest or weed control at 500 g/ha: 500 g ai/ha
How it was run: as §1

[13] = system: barnyardgrass (Echinochloa crus-galli); experiment: Test A postemergence, visual injury rating; settings: Echinochloa crus-galli, post-emergence, 240 h, 0 is no effect, 100 is complete control, read-out: Barnyardgrass plant response rating (0 to 100 scale); for pest or weed control at 125 g/ha: 125 g ai/ha; for pest or weed control at 500 g/ha: 500 g ai/ha
How it was run: as §1

[14] = system: ragweed (common ragweed, Ambrosia elatior); experiment: Test A postemergence, visual injury rating; settings: Ambrosia artemisiifolia, post-emergence, 240 h, 0 is no effect, 100 is complete control, read-out: Ragweed plant response rating (0 to 100 scale); for pest or weed control at 125 g/ha: 125 g ai/ha; for pest or weed control at 500 g/ha: 500 g ai/ha
How it was run: as §1

kochia (Kochia scoparia) [15] = experiment: Test A postemergence, visual injury rating; settings: Bassia scoparia, post-emergence, 240 h, 0 is no effect, 100 is complete control, read-out: Kochia plant response rating (0 to 100 scale); for pest or weed control at 125 g/ha: 125 g ai/ha; for pest or weed control at 500 g/ha: 500 g ai/ha
How it was run: as §1

[16] = system: wheat (Triticum aestivum); experiment: Test A postemergence, visual injury rating; settings: Triticum aestivum, post-emergence, 240 h, 0 is no effect, 100 is complete control, read-out: Wheat plant response rating (0 to 100 scale); for plant injury at 125 g/ha: 125 g ai/ha; for plant injury at 500 g/ha: 500 g ai/ha
How it was run: as §1

Structure (SMILES)	Plant response rating, Pigweed ([1]; 125 g ai/ha, scale of 0 to 100)	Plant response rating, Pigweed ([1]; 16 g ai/ha, scale 0 to 100)	Plant response rating, Pigweed ([1]; 31 g ai/ha, scale 0 to 100)	Plant response rating, Pigweed ([1]; 62 g ai/ha, scale 0 to 100)	pest or weed control at 125 g/ha [2] [%]	pest or weed control at 500 g/ha [2] [%]	pest or weed control at 125 g/ha [3] [%]	pest or weed control at 500 g/ha [3] [%]	pest or weed control at 125 g/ha [4] [%]	pest or weed control at 500 g/ha [4] [%]	pest or weed control at 125 g/ha [5] [%]	pest or weed control at 500 g/ha [5] [%]	pest or weed control at 125 g/ha [6] [%]	pest or weed control at 500 g/ha [6] [%]	pest or weed control at 125 g/ha (kochia (Kochia scoparia) [7]) [%]	pest or weed control at 500 g/ha (kochia (Kochia scoparia) [7]) [%]	plant injury at 125 g/ha (corn (Zea mays)) [%]	plant injury at 500 g/ha (corn (Zea mays)) [%]	pest or weed control at 125 g/ha [8] [%]	pest or weed control at 500 g/ha [8] [%]	other results
O=C(OCCCC(F)(F)F)c1c(Br)cccc1Oc1ncc(Cl)cn1 [Compound 20, 4,4,4-trifluorobutyl 2-bromo-6-[(5-chloro-2-pyrimidinyl)oxy]benzoate]	100	55	55	100	30	90	100	100	100	100	100	100	0	0	30	100	30	40	0	40	pest or weed control at 125 g/ha [9]: 50%; pest or weed control at 500 g/ha [9]: 100%; pest or weed control at 125 g/ha [10]: 30%; pest or weed control at 500 g/ha [10]: 50%; pest or weed control at 125 g/ha [11]: 10%; pest or weed control at 500 g/ha [11]: 90%; pest or weed control at 125 g/ha [12]: 100%; pest or weed control at 500 g/ha [12]: 100%; pest or weed control at 125 g/ha [13]: 30%; pest or weed control at 500 g/ha [13]: 100%; pest or weed control at 125 g/ha [14]: 0%; pest or weed control at 500 g/ha [14]: 40%; pest or weed control at 125 g/ha (kochia (Kochia scoparia) [15]): 90%; pest or weed control at 500 g/ha (kochia (Kochia scoparia) [15]): 100%; plant injury at 125 g/ha [16]: 0%; plant injury at 500 g/ha [16]: 20%
C=CCCOC(=O)c1c(Br)cccc1Oc1ncc(Cl)cn1 [Compound 21, 3-buten-1-yl 2-bromo-6-[(5-chloro-2-pyrimidinyl)oxy]benzoate]	100	5	55	98	30	90	100	100	100	100	100	100	0	0	40	100	30	60	0	90	pest or weed control at 125 g/ha [9]: 70%; pest or weed control at 500 g/ha [9]: 100%; pest or weed control at 125 g/ha [10]: 60%; pest or weed control at 500 g/ha [10]: 80%; pest or weed control at 125 g/ha [11]: 80%; pest or weed control at 500 g/ha [11]: 90%; pest or weed control at 125 g/ha [12]: 80%; pest or weed control at 500 g/ha [12]: 100%; pest or weed control at 125 g/ha [13]: 70%; pest or weed control at 500 g/ha [13]: 100%; pest or weed control at 125 g/ha [14]: 0%; pest or weed control at 500 g/ha [14]: 40%; pest or weed control at 125 g/ha (kochia (Kochia scoparia) [15]): 90%; pest or weed control at 500 g/ha (kochia (Kochia scoparia) [15]): 100%; plant injury at 125 g/ha [16]: 0%; plant injury at 500 g/ha [16]: 40%
